The values that follow come from paper PMC6534253, “Stereoselective pharmacokinetic and pharmacodynamic analysis of a CNS-active sulphamoylphenyl carbamate derivative” (Journal of Enzyme Inhibition and Medicinal Chemistry, 2019).

Data set [1] is described as follows: Pharmacokinetics from plasma levels after i.p. administration to rats. Format: in vivo, rat. The conditions noted are these: for Vd/F: read-out: Vss/F. How it is done: (§1) The pharmacokinetics (PK) of racemic-MSPC and its two individual enantiomers were studied following i.p. (80 mg/kg) to rats and their major PK parameters were estimated.
(§2) The study details were as described previously[8] and plasma and brain levels of racemic-MSPC and it individual enantiomers were monitored at: 20, 40, 60, 90, 120, 160, 180, 200, 220, 260, 320, and 360 min after dosing.
(§3) Plasma and brain concentrations of each compound were quantified by an HPLC assay. The HPLC analysis was performed on a system (2695 Separation Module; Waters, Milford, MA) with a photodiode array UV detector (2996 PDA Detector; Waters, Milford, MA). Conditioned as follows: Kinetex, 5 u EVO C18 100 A, 150*4.6 mm column (Phenomenex®, Torrance, CA). Linear gradients (5–95% acetonitrile content) with H2O (0.1% formic acid) and acetonitrile were used as the eluents with flow rate of 1 ml/min at 20 °C. The compounds and the internal standard were detected at 250 nm. Plasma and brain concentrations of MSPC and its two individual enantiomers were quantified by assay that its extraction method was previously described.
(§4) The PK parameters of each compound were calculated by non-compartmental analysis based on statistical moment theory using the PK software Phoenix Winnonlin Tripos L.P. (Pharsight Co., Mountain View, CA) as previously described. MSPC amount excreted unchanged in the urine was calculated by multiplying its urine concertino by the excreted urine volume for up to 6 h after dosing.

For another data set, the target named is hCA VII (Homo sapiens, UniProt P43166). The data set is described as follows: Stopped flow CO2 hydrase assay, hCA VII. Format: biochemical. The conditions noted are these: mean from three assays, stopped flow technique. The protocol:
(§5) The CA inhibition of MSPC and its individual enantiomers were assessed by a stopped flow CO2 hydrase assay as previously described.

In another data set the target is hCA I (Homo sapiens, UniProt P00915). The data set is described as follows: Stopped flow CO2 hydrase assay, hCA I. It is filed as biochemical. The conditions noted are these: for Ki: mean from three assays, stopped flow technique. How it is done: as §5
Sequence of hCA I (P00915 whole entry): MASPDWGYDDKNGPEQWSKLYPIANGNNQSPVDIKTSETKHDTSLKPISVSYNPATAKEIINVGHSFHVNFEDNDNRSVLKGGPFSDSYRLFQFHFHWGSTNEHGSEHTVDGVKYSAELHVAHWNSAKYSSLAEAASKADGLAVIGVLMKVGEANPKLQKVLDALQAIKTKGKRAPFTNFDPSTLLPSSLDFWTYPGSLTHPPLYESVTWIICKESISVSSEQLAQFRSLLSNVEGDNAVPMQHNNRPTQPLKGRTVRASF
A short description of a further data set: Water solubility. It is filed as physicochemical.
The nature of data set [2]: Amount excreted unchanged in urine. Format: in vivo, rat. The settings on record: urine up to 6 h after dosing. How it is done: MSPC urine concentrations were quantified by the same HPLC assay as its plasma assay.
as §4

The subject of data set [3] is maximal electroshock seizure (MES). The arrangement: method as in PMID 28275953. The settings on record: cited from earlier work.
In another data set the target is hCA IV (Homo sapiens, UniProt P22748). The data set is described as follows: Stopped flow CO2 hydrase assay, hCA IV. The settings on record: mean from three assays, stopped flow technique. Format: biochemical. The protocol:
as §5

The target in the next data set is hCA II (Homo sapiens, UniProt P00918). Description: Stopped flow CO2 hydrase assay, hCA II. It is filed as biochemical. The settings on record: for Ki: mean from three assays, stopped flow technique. How it is done: as §5
A short description of data set [4]: Pharmacokinetics from brain levels after i.p. administration to rats. Format: in vivo, rat. The settings on record: for AUCbrain: as used in the BPR calculation; for Vd/F: read-out: Vss/F. The protocol:
as §1, §2, §3, §4

The subject of data set [5] is maximal electroshock seizure (MES). The data set is described as follows: Rat maximal electroshock (MES) anticonvulsant test. Format: in vivo. The text has this: The experiments at the MES model were done in male Sprague-Dawley rats (8 rats per dose) weighing 100−120 g (Charles River Laboratories, Wilmington, MA) as previously described.
In general terms: The maximal electroshock test induces tonic seizures with an electrical stimulus.

The mark [6] stands for this setting: rat, ip, plasma, i.p. 80 mg/kg, mean.
Where [7] appears, read: rat, plasma, ip, 80 mg/kg, as used in the BPR calculation, i.p. 80 mg/kg, read-out: AUCplasma.
Where [8] appears, read: rat, plasma, ip, 80 mg/kg, plasma, i.p. 80 mg/kg, mean, read-out: AUC.
The mark [9] stands for this setting: rat, ip, brain, rats, i.p. 80 mg/kg, mean.
The mark [10] stands for this setting: plasma, i.p. 80 mg/kg, mean, listed as (R)-enantiomer, 80 mg/kg.
[11] abbreviates: brain, rats, i.p. 80 mg/kg, mean, listed as (R)-enantiomer, 80 mg/kg.
The mark [12] stands for this setting: brain, rats, i.p. 80 mg/kg, mean, listed as (S)-enantiomer, 80 mg/kg.

Sequence of hCA IV (P22748 19-312): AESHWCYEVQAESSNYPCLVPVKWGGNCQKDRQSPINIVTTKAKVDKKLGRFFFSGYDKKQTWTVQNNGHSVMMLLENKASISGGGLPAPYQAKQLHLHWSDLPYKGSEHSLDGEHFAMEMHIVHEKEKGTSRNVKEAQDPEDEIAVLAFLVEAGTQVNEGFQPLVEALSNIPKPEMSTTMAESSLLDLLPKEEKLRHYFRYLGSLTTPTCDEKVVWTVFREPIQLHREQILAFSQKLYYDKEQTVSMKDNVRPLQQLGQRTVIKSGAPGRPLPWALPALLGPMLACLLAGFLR
Sequence of hCA VII (P43166 whole entry): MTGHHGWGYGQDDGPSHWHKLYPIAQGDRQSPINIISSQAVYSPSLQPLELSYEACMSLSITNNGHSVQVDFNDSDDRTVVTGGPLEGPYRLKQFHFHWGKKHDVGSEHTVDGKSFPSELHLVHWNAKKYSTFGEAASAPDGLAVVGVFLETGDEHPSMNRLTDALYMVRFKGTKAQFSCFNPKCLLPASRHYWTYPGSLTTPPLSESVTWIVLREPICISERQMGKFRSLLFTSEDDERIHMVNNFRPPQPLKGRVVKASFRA

A word on the half-life: it is the time needed for the level to fall by half in the phase considered. Lower therefore signals fast loss. By Cmax is commonly meant the peak of the concentration-time curve. The Tmax is the time at which the peak concentration occurs. As usually defined, the Ki is a dissociation constant, usually derived from enzyme kinetics or from competition with a known ligand. A high value points to a looser hold on the target. For `CCC(C)CCOC(=O)Nc1ccc(S(N)(=O)=O)cc1` (racemic) [MSPC (racemate), 3-Methylpentyl(4-sulphamoylphenyl)carbamate], the half-life is 2.1 h in [1] (setting [6]) and 1.9 h in data set [4] (setting [9]). Also, the CL/F in [1] (rat, ip, plasma, i.p. 80 mg/kg, mean, read-out: CL/F (converted)) is 11.7 mL/min/kg; in data set [4] (rat, ip, brain, rats, i.p. 80 mg/kg, mean, read-out: CL/F (converted)) it was 6.67 mL/min/kg. In addition, the Cmax in [1] (rat, ip, plasma, i.p. 80 mg/kg, mean, read-out: Cmax) is 10000 ng/mL; in [4] (rat, ip, brain, rats, i.p. 80 mg/kg, mean, read-out: Cmax), 18000 ng/mL. The figures for the Vd/F in data set [1] (setting [6]) and in data set [4] (setting [9]) were 2.2 L/kg and 1 L/kg, respectively. Besides, the Tmax in data set [1] (rat, ip, plasma, i.p. 80 mg/kg, mean, read-out: tmax) amounted to 1.3 h; in data set [4] (rat, ip, brain, rats, i.p. 80 mg/kg, mean, read-out: tmax), 1.6 h. Moreover, the AUC in [1] (setting [7]) was 28500 ng·h/mL; in data set [1] (setting [8]), 29000 ng·h/mL; in data set [4] (rat, ip, brain, rats, i.p. 80 mg/kg, mean, read-out: AUC), 53000 ng·h/mL. The Ki stood at 351 nM at hCA VII, 77 nM on hCA I, 750 nM on hCA IV and 7.6 nM at hCA II. Also, the water solubility entry in “Water solubility” is recorded as “low water solubility”. Besides, in data set [2], the “dose excreted unchanged in urine” value is given as “Less than 0.1%”. Besides, the “rat-MES-ED50 (i.p.)” value in [3] (i.p.) was 13 mg/kg. The “rat-MES-ED50 (po)” value in data set [3] (po) is given as 28 mg/kg. The AUCbrain in [4] (rats, i.p. 80 mg/kg) is 52.8. The Kp in data set [4] (rat, brain, ip, AUCbrain/AUCplasma, rats, i.p. 80 mg/kg, read-out: brain-to-plasma-(AUC)-ratio (BPR)) came to 1.85.
Compound `CC[C@@H](C)CCOC(=O)Nc1ccc(S(N)(=O)=O)cc1` [(R)-MSPC, 3-methylpentyl(4-sulphamoylphenyl)carbamate] gave a higher clearance in data set [1] (compared to (S)-MSPC and racemic-MSPC) of 29%. In [1] (i.p. 80 mg/kg), the “plasma exposure compared to (S)-MSPC” value turned out to be 78%. Also, in data set [1] (setting [10]), the AUC amounted to 23 mg/L/h, the CL/F was 15 mL/min/kg, the highest concentration (Cmax) came out at 10000 ng/mL and the Tmax is listed as 1.0 h. Moreover, in [1] (setting [10]), the Vss/F is 3.2 l/kg^−1 and the t1/2 came out at 2.5 h. Moreover, the affinity at hCA VII, expressed as Ki, was 170 nM. The same compound yielded a Ki at hCA I of 34.1 nM. Besides, the “times more effective inhibitor than (S)-MSPC against hCA I” value at hCA I (ratio of Ki versus (S)-MSPC) was found to be 3.8. For the same compound, the “rat-MES (po)-ED50” value in data set [5] is listed as 30 mg/kg. Moreover, at hCA IV, the affinity corresponds to a Ki of 810 nM. Moreover, the affinity on hCA II corresponds to a Ki of 3.3 nM. Moreover, on hCA II (ratio of Ki versus (S)-MSPC), the “times more effective inhibitor than (S)-MSPC against hCA II” value is on record as 6.1. Moreover, the “brain-to-plasma-(AUC)-ratio (BPR)” value in [4] (AUCbrain/AUCplasma, rats, i.p. 80 mg/kg, listed as (R)-enantiomer, 80 mg/kg) was 2.07. Also, in data set [4] (setting [11]), the AUC worked out at 47 mg/L/h, the CL/F came out at 6.7 mL/min/kg, the Cmax was 16000 ng/mL and the Tmax was found to be 1.0 h. In data set [4] (setting [11]), this compound showed a Vss/F of 1.4 l/kg^−1 and a t1/2 of 2.3 h. Moreover, the “times higher BPR than its enantiomer” value in data set [4] (versus (S)-MSPC) is given as 2.6.
As usually defined, the ED50 is the dose that gives a 50% effect, or the effect in half of the subjects. A low value points to an effect at a small dose. For `CC[C@H](C)CCOC(=O)Nc1ccc(S(N)(=O)=O)cc1` [(S)-MSPC, 3-methylpentyl(4-sulphamoylphenyl)carbamate], the AUC is 29000 ng·h/mL in [1] (setting [7]), 29000 ng·h/mL in data set [1] (setting [8]) and 23 mg/L/h in [4] (setting [12]). Moreover, the half-life in data set [1] (rat, plasma, ip, 80 mg/kg, i.p. 80 mg/kg, mean) is 2.3 h; in data set [4] (rat, brain, ip, 80 mg/kg, rats, i.p. 80 mg/kg, mean), 1.7 h. The CL/F in [1] (rat, plasma, ip, 80 mg/kg, plasma, i.p. 80 mg/kg, mean, read-out: CL/F (converted)) is 11.7 mL/min/kg; in data set [4] (setting [12]), 15 mL/min/kg. For the same compound, the Cmax in data set [1] (rat, plasma, ip, 80 mg/kg, plasma, i.p. 80 mg/kg, mean, read-out: Cmax) came out at 7600 ng/mL; in data set [4] (setting [12]), 7000 ng/mL. In addition, the Vd/F in data set [1] (rat, plasma, ip, 80 mg/kg, plasma, i.p. 80 mg/kg, mean) turned out to be 2.3 L/kg; in data set [4] (rat, brain, ip, 80 mg/kg, brain, rats, i.p. 80 mg/kg, mean), 2.2 L/kg. Besides, the Tmax in [1] (rat, plasma, ip, 80 mg/kg, plasma, i.p. 80 mg/kg, mean, read-out: tmax) was 1.3 h; in data set [4] (rat, brain, ip, 80 mg/kg, brain, rats, i.p. 80 mg/kg, mean, read-out: tmax) it was 0.6 h. For the same compound, the Ki was 744 nM on hCA VII, 130 nM on hCA I, 593 nM at hCA IV and 20.3 nM on hCA II. Besides, the ED50 in [5] (Rattus norvegicus, po) is 24 mg/kg. The “brain-to-plasma-(AUC)-ratio (BPR)” value in data set [4] (AUCbrain/AUCplasma, rats, i.p. 80 mg/kg, listed as (S)-enantiomer, 80 mg/kg) is 0.79. Further, the AUCbrain in data set [4] (rats, i.p. 80 mg/kg, listed as (S)−enantiomer, 80 mg/kg) was 22.8.
